Results from patent publication US12492173B2, “Herbicidal substituted N-tetrazolyl aryl carboxamides” (Bayer Aktiengesellschaft, priority 2019, dated 2025).

tested on: Matricaria inodora; test: Post-emergence herbicidal action, MATIN; type: in vivo; set-up: key: % herbicidal action vs untreated; 100 = plants died, 0 = like control; conditions: post-emergence, dosage 80 g/ha
Procedure, shortened: (§1)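 Greenhouse post-emergence test: weeds sown in sandy loam were sprayed once at one leaf, 2 to 3 weeks from sowing, with aqueous WP or EC preparations carrying 0.2% wetting agent. Effect is scored visually after about 3 weeks.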

Compound	herbicidal action MATIN [%]
CCn1nnnc1NC(=O)c1ccc(C(F)(F)F)c(CSC)c1Br [Example 2-380]	100
Cn1nnnc1NC(=O)c1ccc(C(F)(F)F)c(C[S+](C)[O-])c1Br (stereo not drawn) [Example 1-381]	90
C=CCSCc1c(C(F)(F)F)ccc(C(=O)Nc2nnnn2C)c1Cl [Example 1-308]	100
Cn1nnnc1NC(=O)c1ccc(C(F)(F)F)c(C[S+](C)[O-])c1Cl (racemic) [Example 1-297]	100
CCSCc1c(C(F)(F)F)ccc(C(=O)Nc2nnnn2CC)c1Br [Example 2-383]	100
CCCn1nnnc1NC(=O)c1ccc(C(F)(F)F)c(C[S+](C)[O-])c1Cl (stereo not drawn) [Example 3-297]	100
CCSCc1c(C(F)(F)F)ccc(C(=O)Nc2nnnn2C)c1C [Example 1-86]	100
CCCn1nnnc1NC(=O)c1ccc(C(F)(F)F)c(C[S+](C)[O-])c1Br (stereo not drawn) [Example 3-381]	90
CCn1nnnc1NC(=O)c1ccc(C(F)(F)F)c(CSC)c1SC [Example 2-161]	100
CSCc1c(C(F)(F)F)ccc(C(=O)Nc2nnnn2C)c1Br [Example 1-380]	90
CCn1nnnc1NC(=O)c1ccc(C(F)(F)F)c(C[S+](C)[O-])c1Br (stereo not drawn) [Example 2-381]	90

tested on: Alopecurus myosuroides; test: Post-emergence herbicidal action, ALOMY; type: in vivo; set-up: key: % herbicidal action vs untreated; 100 = plants died, 0 = like control; conditions: post-emergence, dosage 80 g/ha
Procedure, shortened: as §1

Compound	herbicidal action ALOMY [%]
CCn1nnnc1NC(=O)c1ccc(C(F)(F)F)c(CSC)c1Br [Example 2-380]	80
Cn1nnnc1NC(=O)c1ccc(C(F)(F)F)c(C[S+](C)[O-])c1Br (stereo not drawn) [Example 1-381]	80
C=CCSCc1c(C(F)(F)F)ccc(C(=O)Nc2nnnn2C)c1Cl [Example 1-308]	100
Cn1nnnc1NC(=O)c1ccc(C(F)(F)F)c(C[S+](C)[O-])c1Cl (racemic) [Example 1-297]	100
CCSCc1c(C(F)(F)F)ccc(C(=O)Nc2nnnn2CC)c1Br [Example 2-383]	80
CCCn1nnnc1NC(=O)c1ccc(C(F)(F)F)c(C[S+](C)[O-])c1Cl (stereo not drawn) [Example 3-297]	90
CCSCc1c(C(F)(F)F)ccc(C(=O)Nc2nnnn2C)c1C [Example 1-86]	80
CCCn1nnnc1NC(=O)c1ccc(C(F)(F)F)c(C[S+](C)[O-])c1Br (stereo not drawn) [Example 3-381]	80
CCn1nnnc1NC(=O)c1ccc(C(F)(F)F)c(CSC)c1SC [Example 2-161]	80
CSCc1c(C(F)(F)F)ccc(C(=O)Nc2nnnn2C)c1Br [Example 1-380]	90
CCn1nnnc1NC(=O)c1ccc(C(F)(F)F)c(C[S+](C)[O-])c1Br (stereo not drawn) [Example 2-381]	80

tested on: Polygonum convolvulus; test: Post-emergence herbicidal action, POLCO; type: in vivo; conditions: post-emergence, dosage 80 g/ha
Procedure, shortened: as §1

Compound	herbicidal action POLCO [%]
CCn1nnnc1NC(=O)c1ccc(C(F)(F)F)c(CSC)c1Br [Example 2-380]	90
Cn1nnnc1NC(=O)c1ccc(C(F)(F)F)c(C[S+](C)[O-])c1Br (stereo not drawn) [Example 1-381]	80
C=CCSCc1c(C(F)(F)F)ccc(C(=O)Nc2nnnn2C)c1Cl [Example 1-308]	90
Cn1nnnc1NC(=O)c1ccc(C(F)(F)F)c(C[S+](C)[O-])c1Cl (racemic) [Example 1-297]	80
CCSCc1c(C(F)(F)F)ccc(C(=O)Nc2nnnn2CC)c1Br [Example 2-383]	90
CCCn1nnnc1NC(=O)c1ccc(C(F)(F)F)c(C[S+](C)[O-])c1Cl (stereo not drawn) [Example 3-297]	80
CCSCc1c(C(F)(F)F)ccc(C(=O)Nc2nnnn2C)c1C [Example 1-86]	80
CCCn1nnnc1NC(=O)c1ccc(C(F)(F)F)c(C[S+](C)[O-])c1Br (stereo not drawn) [Example 3-381]	80
CCn1nnnc1NC(=O)c1ccc(C(F)(F)F)c(CSC)c1SC [Example 2-161]	100
CSCc1c(C(F)(F)F)ccc(C(=O)Nc2nnnn2C)c1Br [Example 1-380]	90
CCn1nnnc1NC(=O)c1ccc(C(F)(F)F)c(C[S+](C)[O-])c1Br (stereo not drawn) [Example 2-381]	90

tested on: Setaria viridis; test: Post-emergence herbicidal action, SETVI; type: in vivo; set-up: key: % herbicidal action vs untreated; 100 = plants died, 0 = like control; conditions: post-emergence, dosage 80 g/ha
Procedure, shortened: as §1

Compound	herbicidal action SETVI [%]
CCn1nnnc1NC(=O)c1ccc(C(F)(F)F)c(CSC)c1Br [Example 2-380]	100
Cn1nnnc1NC(=O)c1ccc(C(F)(F)F)c(C[S+](C)[O-])c1Br (stereo not drawn) [Example 1-381]	100
C=CCSCc1c(C(F)(F)F)ccc(C(=O)Nc2nnnn2C)c1Cl [Example 1-308]	100
Cn1nnnc1NC(=O)c1ccc(C(F)(F)F)c(C[S+](C)[O-])c1Cl (racemic) [Example 1-297]	80
CCSCc1c(C(F)(F)F)ccc(C(=O)Nc2nnnn2CC)c1Br [Example 2-383]	100
CCCn1nnnc1NC(=O)c1ccc(C(F)(F)F)c(C[S+](C)[O-])c1Cl (stereo not drawn) [Example 3-297]	80
CCSCc1c(C(F)(F)F)ccc(C(=O)Nc2nnnn2C)c1C [Example 1-86]	80
CCCn1nnnc1NC(=O)c1ccc(C(F)(F)F)c(C[S+](C)[O-])c1Br (stereo not drawn) [Example 3-381]	90
CCn1nnnc1NC(=O)c1ccc(C(F)(F)F)c(CSC)c1SC [Example 2-161]	100
CSCc1c(C(F)(F)F)ccc(C(=O)Nc2nnnn2C)c1Br [Example 1-380]	90
CCn1nnnc1NC(=O)c1ccc(C(F)(F)F)c(C[S+](C)[O-])c1Br (stereo not drawn) [Example 2-381]	100

tested on: Avena fatua; test: Post-emergence herbicidal action, AVEFA; type: in vivo; set-up: key: % herbicidal action vs untreated; 100 = plants died, 0 = like control; conditions: post-emergence, dosage 80 g/ha
Procedure, shortened: as §1

Compound	herbicidal action AVEFA [%]
CCn1nnnc1NC(=O)c1ccc(C(F)(F)F)c(CSC)c1Br [Example 2-380]	100
Cn1nnnc1NC(=O)c1ccc(C(F)(F)F)c(C[S+](C)[O-])c1Br (stereo not drawn) [Example 1-381]	100
C=CCSCc1c(C(F)(F)F)ccc(C(=O)Nc2nnnn2C)c1Cl [Example 1-308]	100
Cn1nnnc1NC(=O)c1ccc(C(F)(F)F)c(C[S+](C)[O-])c1Cl (racemic) [Example 1-297]	100
CCSCc1c(C(F)(F)F)ccc(C(=O)Nc2nnnn2CC)c1Br [Example 2-383]	100
CCCn1nnnc1NC(=O)c1ccc(C(F)(F)F)c(C[S+](C)[O-])c1Cl (stereo not drawn) [Example 3-297]	100
CCSCc1c(C(F)(F)F)ccc(C(=O)Nc2nnnn2C)c1C [Example 1-86]	100
CCCn1nnnc1NC(=O)c1ccc(C(F)(F)F)c(C[S+](C)[O-])c1Br (stereo not drawn) [Example 3-381]	100
CCn1nnnc1NC(=O)c1ccc(C(F)(F)F)c(CSC)c1SC [Example 2-161]	90
CSCc1c(C(F)(F)F)ccc(C(=O)Nc2nnnn2C)c1Br [Example 1-380]	100
CCn1nnnc1NC(=O)c1ccc(C(F)(F)F)c(C[S+](C)[O-])c1Br (stereo not drawn) [Example 2-381]	100

tested on: Amaranthus retroflexus; test: Pre-emergence herbicidal action, AMARE; type: in vivo; conditions: dosage 320 g/ha, scored visually after 3 weeks vs untreated controls (100% = plants have died)
Procedure, shortened: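 Seeds sown in sandy loam in pots and covered with soil; compounds formulated as WP or EC were sprayed onto the soil surface as aqueous suspension/emulsion at 600 to 800 l/ha water with 0.2% wetting agent. Greenhouse growth; visual damage scored after 3 weeks versus untreated controls (100% = plants died, 0% = like control).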

Compound	herbicidal activity AMARE [%]
CCn1nnnc1NC(=O)c1ccc(C(F)(F)F)c(CSC)c1Br [Example 2-380]	100
Cn1nnnc1NC(=O)c1ccc(C(F)(F)F)c(C[S+](C)[O-])c1Br (stereo not drawn) [Example 1-381]	100
C=CCSCc1c(C(F)(F)F)ccc(C(=O)Nc2nnnn2C)c1Cl [Example 1-308]	100
Cn1nnnc1NC(=O)c1ccc(C(F)(F)F)c(C[S+](C)[O-])c1Cl (racemic) [Example 1-297]	100
CCSCc1c(C(F)(F)F)ccc(C(=O)Nc2nnnn2CC)c1Br [Example 2-383]	100
CCCn1nnnc1NC(=O)c1ccc(C(F)(F)F)c(C[S+](C)[O-])c1Cl (stereo not drawn) [Example 3-297]	100
CCSCc1c(C(F)(F)F)ccc(C(=O)Nc2nnnn2C)c1C [Example 1-86]	100
CCCn1nnnc1NC(=O)c1ccc(C(F)(F)F)c(C[S+](C)[O-])c1Br (stereo not drawn) [Example 3-381]	100
CCn1nnnc1NC(=O)c1ccc(C(F)(F)F)c(CSC)c1SC [Example 2-161]	100
CSCc1c(C(F)(F)F)ccc(C(=O)Nc2nnnn2C)c1Br [Example 1-380]	100
CCn1nnnc1NC(=O)c1ccc(C(F)(F)F)c(C[S+](C)[O-])c1Br (stereo not drawn) [Example 2-381]	100
